The nature of test [1]: Antiviral activity against Human Immunodeficiency Virus by Reverse transcriptase assay in CEM-SS cells.
Test [2] can be described thus: Antiviral activity against Human Immunodeficiency Virus by Reverse transcriptase assay in CEM-SS.
The nature of test [3]: Antiviral activity against Human Immunodeficiency Virus by Reverse transcriptase assay in CEM-SS cells. This is another data set of the same source.
Test [4] can be described thus: Antiviral activity against Human Immunodeficiency Virus by Reverse transcriptase (RT) assay in CEM-SS cells.
Test [5] is described as follows: Antiviral activity against Human Immunodeficiency Virus by Reverse transcriptase assay CEM-SS cells.

Each structure is given as a SMILES string. pIC50: −log10 of the molar value. Where only a bound is given, the exact number is not on record here.

The term pIC50 denotes the IC50 on a negative log10 scale, so that one unit is a factor of ten. A higher pIC50 goes with a low IC50. The molecule `FC(F)(F)c1cc(Cn2c(Br)nc3cc(Cl)c(Cl)cc32)cc(C(F)(F)F)c1` [1-(3,5-Bis-trifluoromethyl-benzyl)-2-bromo-5,6-dichloro-1H-benzoimidazole] gave a pIC50 in test [1] of less than 4.00.

For the molecule `Cc1cn([C@H]2C[C@H](N=[N+]=[N-])[C@@H](CO)O2)c(=O)[nH]c1=O` [1-((2R,4S,5S)-4-Azido-5-hydroxymethyl-tetrahydro-furan-2-yl)-5-methyl-1H-pyrimidine-2,4-dione], the pIC50 in test [1] was 8.51. The molecule `Cc1ccc(Cn2c(Cl)nc3cc(Cl)c(Cl)cc32)cc1` [2,5,6-Trichloro-1-(4-methyl-benzyl)-1H-benzoimidazole] gave a pIC50 in test [2] of less than 4.00. For the molecule `O=[N+]([O-])c1ccc(Cn2c(Cl)nc3cc(Cl)c(Cl)cc32)cc1` [2,5,6-Trichloro-1-(4-nitro-benzyl)-1H-benzoimidazole], the pIC50 in test [3] was less than 4.00.

As for `Clc1ccc(Cn2c(Br)nc3cc(Cl)c(Cl)cc32)cc1Cl` [2-Bromo-5,6-dichloro-1-(3,4-dichloro-benzyl)-1H-benzoimidazole], the pIC50 in test [1] was less than 4.00.

For `Cc1cccc(Cn2c(Br)nc3cc(Cl)c(Cl)cc32)c1` [2-Bromo-5,6-dichloro-1-(3-methyl-benzyl)-1H-benzoimidazole], the pIC50 in test [1] is 4.18. In turn, `O=[N+]([O-])c1cccc(Cn2c(Br)nc3cc(Cl)c(Cl)cc32)c1` [2-Bromo-5,6-dichloro-1-(3-nitro-benzyl)-1H-benzoimidazole] showed a pIC50 in test [4] of less than 4.49. For the molecule `COc1ccc(Cn2c(Br)nc3cc(Cl)c(Cl)cc32)cc1` [2-Bromo-5,6-dichloro-1-(4-methoxy-benzyl)-1H-benzoimidazole], the pIC50 in test [5] is less than 4.00.

For the origin of these results see BindingDB's records for doi:10.1021/jm970559i (University of Michigan, 1998).
